Data reported in patent US9758484B2 (Asieris Pharmaceutical Technologies Co., Ltd., priority 2013, dated 2017).
Values joined by “and” are separate entries in the source; they are usually repeats but may differ in a detail not shown here. Equal values may be shown once.

Experiments:
[1] = In vivo urinary excretion of nitroxoline and nitroxoline salts in mice; design: species or system CD-1 ICR mice; conditions: 41.8 mg/kg
Protocol: Urine samples were collected in the following periods of time: 0-2, 2-6, 6-24 h. Due to the small volume of the urine from mice, the collecting system in the cage was washed with water at each collecting time. Urine samples and their wash samples were analyzed according to the same methods used in the beagle dog study (Example 24).
(§1) The same study was repeated with APL-1092, nitroxoline lysine salt.

[2] = humans, orally administered; cited from earlier work
[3] = In vivo urinary excretion of nitroxoline and nitroxoline salts in beagle dogs
Protocol: Urine samples were collected in the following periods of time: 0-2, 2-4, 4-6, 6-8, 8-24 h. Urine samples were analyzed by LC/MS/MS method utilizing an Agilent 1100 HPLC system with a CTC auto-sampler, an AB API4000 mass spectrometer, and a column of ACQUITY UPLC BEH C18 (2.1*50 mm) Dexamethasone was used as an internal standard. […] The range of linearity was determined to be 25˜5000 ng/mL.
as §1

[4] = Solubility tests of nitroxoline and nitroxoline salts in aqueous buffers and water; type: physicochemical; conditions: aqueous buffers pH 1.2 to 8, 25 °C, pH 1.2, aqueous buffer, thermodynamic from solid, all pHs tested, from pH 1.2 to 8; read-out: solubility at all pHs tested
Protocol: 1) Aqueous buffer solutions with varying pH were prepared as follows: • i. Water: distilled water; • ii. pH=1.2 buffer: 7.65 mL 36.5% HCl solution was diluted to 1000 mL with water; • iii. pH=4.5 buffer: 18 g sodium acetate and 9.8 mL acetic acid were diluted to 1000 mL with water; • iv. pH=5.0 buffer: sodium hydroxide was added to 0.2 mol/L monosodium phosphate (NaH2PO4) solution until the pH was adjusted to 5.0; • v. pH=6.0 buffer: 18 g sodium acetate were added into 20 mL acetic acid solution (1 M), and the mixture was diluted to 500 mL with water; • vi. pH=6.8 buffer: 250 mL of 0.2 M monopotassium phosphate (KH2PO4) solution were added to 118 mL of 0.2 M sodium hydroxide solution, and the mixture was diluted to 1000 mL with water; • vii. pH=7.4 buffer: 1.36 g monopotassium phosphate (KH2PO4) were added to 79 mL of 0.1 M sodium hydroxide solution, and the mixture was diluted to 200 mL with water; and • viii pH=8.0 buffer: 5.59 g potassium biphosphate (K2HPO4) and 0.41 g monopotassium. phosphate (KH2PO4) were added to 1000 mL water and mixed.
2) Solubility tests were performed generally as follows:
Under a temperature of 25±2° C., 10 mg of each salt sample was weighed and added to a 100 mL volumetric bottle. 0.25 mL buffer was added to the bottle, which was shaken vigorously for 30 seconds every 5 min.
If the sample was not completely dissolved, 0.7 mL of the same buffer was added, and dissolution was observed by the same shaking procedure.
If the sample was not completely dissolved, 8.5 mL of the same buffer was added, and dissolution was observed by the same shaking procedure.
If the sample was not completely dissolved, 85 mL of the same buffer was added, and dissolution was observed by the same shaking procedure.

24-Hr Accumulated drug in the urine ([1]; In Mice, 41.8 mg/Kg APL-1202 or equivalent dose): 79.8 µg
Total mass of nitroxoline in urine and wash, Mean ([1]; mean of mice, oral, equivalent of 41.8 mg/Kg nitroxoline, 0-24 hr): 79827 ng
f (%): percentage of total mass of excreted drug versus the dose amount, Mean ([1]; mean of mice, oral, equivalent of 41.8 mg/Kg nitroxoline): 10%
Mass of nitroxoline, 0~2 wash, Mean ([1]; mean of mice, oral, equivalent of 41.8 mg/Kg nitroxoline, cage wash 0~2 hr): 4184 ng
Mass of nitroxoline, 2~6 wash, Mean ([1]; mean of mice, oral, equivalent of 41.8 mg/Kg nitroxoline, cage wash 2~6 hr): 2057 ng
Mass of nitroxoline, 6~24 wash, Mean ([1]; mean of mice, oral, equivalent of 41.8 mg/Kg nitroxoline, cage wash 6~24 hr): 1138 ng
Mass of nitroxoline in urine, 0-2 hr, Mean ([1]; mean of mice, oral, equivalent of 41.8 mg/Kg nitroxoline, urine 0-2 hr): 56879 ng
Mass of nitroxoline in urine, 2-6 hr, Mean ([1]; mean of mice, oral, equivalent of 41.8 mg/Kg nitroxoline, urine 2-6 hr): 15258 ng
Mass of nitroxoline in urine, 6-24 hr, Mean ([1]; mean of mice, oral, equivalent of 41.8 mg/Kg nitroxoline, urine 6-24 hr): 310 ng
24-Hr Accumulated drug in the urine ([3]; In Dogs, 75 mg APL-1202 or equivalent amount): 97 µg
f (%): percentage of total mass of excreted drug versus the dose amount ([3]; individual dogs, oral tablet, 75 mg nitroxoline equivalent): 0.074% and 0.11% and 0.205%
Total mass of nitroxoline in urine ([3]; individual dogs, oral tablet, 75 mg nitroxoline equivalent, 0-24 hr): 55350 ng and 82489 ng and 153888 ng
Mass of nitroxoline in urine, 0-2 hr ([3]; individual dogs, oral tablet, 75 mg nitroxoline equivalent, collection 0-2 hr): 5670 ng and 60420 ng and 105600 ng
Mass of nitroxoline in urine, 2-4 hr ([3]; individual dogs, oral tablet, 75 mg nitroxoline equivalent, collection 2-4 hr): 0 ng and 13005 ng and 5502 ng
Mass of nitroxoline in urine, 4-6 hr ([3]; individual dogs, oral tablet, 75 mg nitroxoline equivalent, collection 4-6 hr): 0 ng and 817 ng and 28696 ng
Mass of nitroxoline in urine, 6-8 hr ([3]; individual dogs, oral tablet, 75 mg nitroxoline equivalent, collection 6-8 hr): 0 ng and 2582 ng and 5808 ng
Mass of nitroxoline in urine, 8-24 hr ([3]; individual dogs, oral tablet, 75 mg nitroxoline equivalent, collection 8-24 hr): 49680 ng and 5664 ng and 8282 ng
f (%): percentage of total mass of excreted drug versus the dose amount, Mean ([3]; mean of dogs, oral tablet, 75 mg nitroxoline equivalent): 0.13%
Total mass of nitroxoline in urine, Mean ([3]; mean of dogs, oral tablet, 75 mg nitroxoline equivalent, 0-24 hr): 97242 ng
Mass of nitroxoline in urine, 0-2 hr, Mean ([3]; mean of dogs, oral tablet, 75 mg nitroxoline equivalent, collection 0-2 hr): 57230 ng
Mass of nitroxoline in urine, 2-4 hr, Mean ([3]; mean of dogs, oral tablet, 75 mg nitroxoline equivalent, collection 2-4 hr): 9254 ng
Mass of nitroxoline in urine, 4-6 hr, Mean ([3]; mean of dogs, oral tablet, 75 mg nitroxoline equivalent, collection 4-6 hr): 14757 ng
Mass of nitroxoline in urine, 6-8 hr, Mean ([3]; mean of dogs, oral tablet, 75 mg nitroxoline equivalent, collection 6-8 hr): 4195 ng
Mass of nitroxoline in urine, 8-24 hr, Mean ([3]; mean of dogs, oral tablet, 75 mg nitroxoline equivalent, collection 8-24 hr): 21209 ng
solubility at 30 min [4]: < 100 µg/mL
Compound: O=[N+]([O-])c1ccc(O)c2ncccc12 [APL-1202, nitroxoline, reference compound]
Total mass of nitroxoline in urine and wash ([1]; individual mice, oral, equivalent of 41.8 mg/Kg nitroxoline, 0-24 hr): 124391 ng and 50517 ng and 23093 ng and 41201 ng and 88137 ng and 151622 ng
f (%): percentage of total mass of excreted drug versus the dose amount ([1]; individual mice, oral, equivalent of 41.8 mg/Kg nitroxoline): 15.2% and 6.17% and 2.94% and 5.24% and 10.9% and 19.5%
Mass of nitroxoline, 0~2 wash ([1]; individual mice, oral, equivalent of 41.8 mg/Kg nitroxoline, cage wash 0~2 hr): 2856 ng and 6652.8 ng and 784 ng and 4212 ng and 8250 ng and 2352 ng
Mass of nitroxoline, 2~6 wash ([1]; individual mice, oral, equivalent of 41.8 mg/Kg nitroxoline, cage wash 2~6 hr): 1283 ng and 5325 ng and 957 ng and 2904 ng and 1530 ng and 346 ng
Mass of nitroxoline, 6~24 wash ([1]; individual mice, oral, equivalent of 41.8 mg/Kg nitroxoline, cage wash 6~24 hr): 249 ng and 1428 ng and 2341 ng and 1558 ng and 1102 ng and 152 ng
Mass of nitroxoline in urine, 0-2 hr ([1]; individual mice, oral, equivalent of 41.8 mg/Kg nitroxoline, urine 0-2 hr): 109552 ng and 10584 ng and 1360 ng and 21035 ng and 61040 ng and 137700 ng
Mass of nitroxoline in urine, 2-6 hr ([1]; individual mice, oral, equivalent of 41.8 mg/Kg nitroxoline, urine 2-6 hr): 10404 ng and 26418 ng and 17600 ng and 11412 ng and 14715 ng and 11000 ng
Mass of nitroxoline in urine, 6-24 hr ([1]; individual mice, oral, equivalent of 41.8 mg/Kg nitroxoline, urine 6-24 hr): 47.8 ng and 109 ng and 50.9 ng and 81 ng and 1500 ng and 71.5 ng
half-life (t1/2) [2]: 2.63 h
